Source: US20160017326A1, “MICRORNAS AS FUNCTIONAL MEDIATORS AND BIOMARKERS OF BONE METASTASIS” (THE TRUSTEES OF PRINCETON UNIVERSITY, priority 2013, published 2016)

Legend:
[1] = test system: RAW264.7 cells; test: RANKL-induced osteoclast differentiation, TRAP staining; assay type: cell-based, murine; details: all models tested
From the text: HeLa and RAW264.7 cells (American Type Culture Collection, ATCC) were maintained in Dulbecco's modified Eagle's medium (DMEM) supplemented with 10% fetal bovine serum (FBS), penicillin/streptomycin (GIBCO), and fungizone. MOCP-5 cells were maintained in αMEM with 10% FBS and antibiotics. MDA-MB-231 parental cells (ATCC) and all sublines (SCP2, SCP4, SCP6, SCP28, SCP46) were maintained in DMEM with 10% FBS and antibiotics. The murine 4T1 and 4T1.2 cells, and human TSU-Pr1, and TSU-PR1-B2 cells were similarly maintained in DMEM with 10% FBS and antibiotics. For osteoclast differentiation assays, cells were treated with indicated concentration of RANKL in DMEM plus 10% FBS, with media changes performed every 2 days. Primary osteoclasts were isolated from bone marrow cells flushed from the tibia of 6-week-old wild type Balb/c mice and filtered through a […] cell-strainer before overnight culture in aMEM with 10% FBS. The following day 1×10^6 non-adherent cells were plated in 6-well plates supplemented with 50 ng/mL M-CSF for 2 days, followed by 50 ng/mL RANKL for an additional 4-5 days, with media changes every 2 days. Human osteoclasts were obtained from Lonza (2T-110) and differentiated by treatment with 33 ng/ml M-CSF and 66 ng/ml RANKL. CM was collected from the indicated sub-confluent tumor cells grown in DMEM with […] for 24 hours. The CM was passed through a 0.2 μm filter before addition to 1×10^5 RAW264.7 or MOCP-5 cells in a 6-well plate. The media was replaced with fresh CM daily. Cells were TRAP stained on day 6 using a leukocyte acid phosphatase kit (Sigma) and TRAP^+-multineucliated cells were quantified as mature osteoclasts. […]

[2] = test system: RAW264.7 cells; test: In vitro bone resorption assay on bovine bone slices; assay type: cell-based, murine; details: miRNA transfection, 50 ng/ml RANKL, relative to control cells
Experimental: 5×10^4 pre-osteoclast cells were seeded onto 1 mm thick slices of bovine bone cut using a diamond saw and sterilized by immersion in 70% ethanol. Cells were cultured for 10 days as indicated in 6-well plates, transferred to fresh plates and washed to remove osteoclasts. Bone slices were stained in a solution of 1% toludine blue in 0.5% sodium tetraborate, destained in PBS plus 1% Triton X-100, and imaged by light microscopy.
In vitro bone resorption assay was then used to measure the effect of ectopic miRNA expression on osteoclast activity. […] Referring to this figures, scale bar represents 200 μm. Results were statistically significant with p<0.01 (**) and p<0.001 (***). […] Since these miRNAs may inhibit osteoclast differentiation or function by targeting different mRNAs, the repression of osteoclast differentiation was further examined using combinations of inhibitory miRNAs. Given that transient transfection with 10 pM of miRNA precursors was sufficient to inhibit up to approximately 90% of osteoclast differentiation, RAW264.7 cells were treated with a combination of miRNAs at a reduced concentration of 1 pM total precursors.

[3] = test system: Pu.1, Nfatc1, Ctsk in RAW264.7 cells; test: Western blot of Pu.1, Nfatc1, Ctsk after miRNA transfection and RANKL; assay type: cell-based, murine; details: transient miRNA transfection, 50 ng/ml RANKL
Experimental: SDS lysis buffer (0.05 mM Tris-HCl, 50 mM BME, 2% SDS, 0.1% Bromophenol blue, 10% glycerol) was used to collect protein from cells. Samples were sonicated and heat denatured protein was equally loaded, separated on a 10% SDS-page gel, transferred onto a pure nitrocellulose membrane (BioRad), and blocked with 5% milk. Primary antibodies for immunoblotting included: anti-IκBα (1:1000 dilution, Cell signaling, 44D4), anti-p-p65 (1:500 dilution, Santa Cruz Biotechnology), anti-Pu.1 (5 μg/ml, Abcam, AB88082), anti-Nfatc1 (1 μg/ml, Abcam, AB25916), anti-Ctsk (4 μg/ml, Abcam, AB19027), anti-β-actin (1:5000 dilution, ABcam), for loading control. Membranes were incubated with horseradish peroxidase (HRP)-conjugated anti-mouse secondary antibody (1:2000 dilution, GE Healthcare) or anti-rabbit secondary antibody (1:2000 dilution, GE Healthcare) for 1 h and chemiluminescence signals were detected by ECL substrate (GE Healthcare).
To better examine the capacity of the miRNAs to inhibit osteoclast differentiation, osteoclast markers were examined in RAW264.7 cells transfected with the miRNA of interest, followed by RANKL treatment. FIG. 5F illustrates Western blot analysis for Pu.1, Nfatc1, or Ctsk in RAW264.7 cells after transient transfection with indicated miRNA and treatment with 50 ng/ml RANKL. Data in the figure represent average ±SEM; p values were based on Student's t-test.

[4] = Serum miRNA levels after injection of pre-miRNAs, qRT-PCR; assay type: in vivo, mice; details: qPCR of mouse serum
Experimental: RNA from cell lines was isolated using a miRVana miRNA isolation kit (AMBION®). Total RNA from mouse bleeds was isolated using Trizol LS (Invitrogen) according to manufacturers instructions. For microarrays, 5 μg total RNA was labeled using the NCode Rapid Labeling System (Invitrogen) and hybridized to custom arrays. The arrays were analyzed using the G2565BA scanner (Agilent Technologies), and median fluorescent intensities were obtained after subtracting background. To identify differential miRNA expression between samples, the median fluorescent intensities were normalized using the median expression values within the array and log 2 values analyzed.
mRNA was analyzed by synthesizing cDNA using the Superscript III First-strand kit (Invitrogen) and qPCR performed using the Power SYBR® green PCR master mix (Applied Biosystems). Mature miRNAs were reverse transcribed using the TaqMan Reverse Transcription Kit (Applied Biosystems) followed by real-time PCR using TaqMan miRNA assays (Applied Biosystems). All analysis was performed using an ABI 7900HT PCR machine according to the manufacturer's instructions. A standard curve was created from serial dilutions from cDNA for each gene of interest. Values were normalized by the expression of GAPDH or RNU6B in each sample.
FIG. 8C illustrates qRT-PCR miRNA expression levels from serum samples of mice taken at indicated times after injection with miRNAs. The results were statistically significant with p<0.01 (**). […] In contrast, miR-141 and miR-219 took substantially longer to clear from the serum, maintaining ˜20% of the normalized expression at 24 hours.

Substance | osteoclast maturation and activity [1] | bone resorption (osteoclast activity) [2] | expression of Pu.1, Nfatc1, Ctsk (Western blot) [3] | serum miRNA level within 6 hours of injection [4] | clearance from serum within 24 hours [4] | normalized serum expression remaining at 24 hours [4] [%]
miR-190: miRNA, SEQ ID NO: 64; delivered as pre-miRNA precursor; targets Calcr (UGAUAUGUUUGAUAUAUUAGGU; delivered as pre-miRNA precursor, chemistry not given here; listed as Homo sapiens) | Partial inhibition | dramatically limited osteoclast activity | expressed Pu.1 and Nfatc1, but not Ctsk | substantial decrease | nearly full clearance | 
miR-141: miRNA, SEQ ID NO: 69; delivered as pre-miRNA precursor; targets Mitf and Calcr (UAACACUGUCUGGUAACGAUGU; delivered as pre-miRNA precursor, chemistry not given here; listed as Homo sapiens) | strongly inhibit | dramatically limited osteoclast activity | inhibited early osteoclast differentiation, with minimal expression of Nfatc1 |  |  | ~20
miR-219: miRNA, SEQ ID NO: 66; delivered as pre-miRNA precursor; targets Mitf and Traf6 (UGAUUGUCCAAACGCAAUUCU; delivered as pre-miRNA precursor, chemistry not given here; listed as Homo sapiens) | strongly inhibit | dramatically limited osteoclast activity | inhibited early osteoclast differentiation, with minimal expression of Nfatc1 |  |  | ~20
miR-133a: miRNA, SEQ ID NO: 61; delivered as pre-miRNA precursor; targets Mitf and Mmp14 (UUUGGUCCCCUUCAACCAGCUA; delivered as pre-miRNA precursor, chemistry not given here; listed as Homo sapiens) | strongly inhibit | dramatically limited osteoclast activity | inhibited early osteoclast differentiation, with minimal expression of Nfatc1 | substantial decrease | nearly full clearance | 
